US20160002247A1, “8-SUBSTITUTED IMIDAZOPYRIMIDINONE DERIVATIVE HAVING AUTOTAXIN INHIBITORY ACTIVITY” (THE UNIVERSITY OF TOKYO, priority 2013, published 2016)
pIC50: −log10 of the molar value.

Target: T1, Human autotaxin enzyme (Homo sapiens, UniProt Q13822)
T1 construct: purchased R&D System
Test: Evaluation of autotaxin inhibitor, Method B (Test Example 2): TG-mTMP fluorescence
Format: biochemical
Details: Assay Method B (Test Example 2), human autotaxin; read-out: Inhibitory Activity (autotaxin enzyme inhibitory activity, IC50 class)
Method: (Method B) Evaluation of Autotaxin Inhibitor
Solution A containing 25 mM Tris-HCl buffer (pH7.5), 100 mM NaCl, 5 mM MgCl2 and 0.1% BSA was prepared. Human autotaxin enzyme (purchased from R&D System) was diluted with Solution A, and 5 μL of which was added to a solution of test compound in DMSO. Furthermore, 5 μl of 0.5 μM TG-mTMP in Solution A was added and allowed to react at room temperature for 2 hours. 5 μl of 150 mM EDTA in Solution A was added to quench the reaction, and the fluorescent dye TokyoGreen, which was produced by the reaction, was detected. The fluorescence was detected using ViewLux (PerkinElmer, Inc.) with an excitation wavelength of 480 nm and a fluorescence wavelength of 540 nm.

Q: With `CCCCCn1c(C)cc(=O)n2cc(-c3cccc(Cl)c3)nc12` [Compound 147] as the compound, how does the pIC50 read?
A: < 6.00

Q: How did the pIC50 turn out when `CCCCCn1c(NCCc2ccccc2)cc(=O)n2cc(-c3ccc(Cl)cc3)nc12` [Compound 251] was run?
A: 7.00 to 8.00

Q: `CCCCCn1c(-c2ccc(N(C)C)cc2)cc(=O)n2cc(-c3ccc(Cl)cc3)nc12` [Compound 399] was tested. Which pIC50 did it give?
A: 7.00 to 8.00

Q: `CCCCCn1c(OC(C)(C)C)cc(=O)n2cc(-c3ccc(Cl)cc3)nc12` [Compound 270] was tested. Which pIC50 did it give?
A: 6.00 to 7.00

Q: `CCCCCn1c(C)c(C)c(=O)n2cc(-c3ccc(Cl)cc3)nc12` [Compound 208] was tested. Which pIC50 did it give?
A: 7.00 to 8.00

Q: How did the pIC50 turn out when `CCCCCn1c(NCc2ccc(C(=O)OC)cc2)cc(=O)n2cc(-c3ccc(Cl)cc3)nc12` [Compound 177, methyl 4-((2-(4-chlorophenyl)-5-oxo-8-pentyl-5,8-dihydroimidazo[1,2-a]pyrimidin-7-ylamino)methyl)benzoate] was run?
A: 7.00 to 8.00

Q: How did the pIC50 turn out when `C/C=C/c1cc(=O)n2cc(-c3ccc(Cl)cc3)nc2n1CCCCC` [Compound 414] was run?
A: 7.00 to 8.00

Q: `CCCCCn1c(OCCC)cc(=O)n2cc(-c3ccc(Cl)cc3)nc12` [Compound 189] was tested. Which pIC50 did it give?
A: 7.00 to 8.00

Q: With `CCCCCn1c(Oc2ccccn2)cc(=O)n2cc(-c3ccc(Cl)cc3)nc12` [Compound 273] as the compound, how does the pIC50 read?
A: 6.00 to 7.00

Q: `CCCCCn1c(C)cc(=O)n2c(CN(C)C)c(-c3ccc(Cl)cc3)nc12` [Compound 173] was tested. Which pIC50 did it give?
A: < 6.00

Q: `CCCCCn1c(C)cc(=O)n2cc(-c3ccc4c(c3)OCCCO4)nc12` [Compound 160] was tested. Which pIC50 did it give?
A: 6.00 to 7.00

Q: With `CCCCCn1c(NCC(=O)O)cc(=O)n2cc(-c3ccc(Cl)cc3)nc12` [Compound 218] as the compound, how does the pIC50 read?
A: 7.00 to 8.00

Q: `CCCCCn1c(C)cc(=O)n2cc(-c3ccc(N(CC)CC)cc3)nc12` [Compound 159] was tested. Which pIC50 did it give?
A: < 6.00

Q: `CCCCCn1c(C)cc(=O)n2cc(-c3ccc(Cl)cc3Cl)nc12` [Compound 158] was tested. Which pIC50 did it give?
A: 7.00 to 8.00

Q: With `CCCCCn1c(Cl)cc(=O)n2cc(-c3ccc(Cl)cc3)nc12` [Compound 176, 7-chloro-2-(4-chlorophenyl)-8-pentylimidazo[1,2-a]pyrimidin-5(8H)-one] as the compound, how does the pIC50 read?
A: 7.00 to 8.00

Q: `CCCCCn1c(N(C)CCC)cc(=O)n2cc(-c3ccc(Cl)cc3)nc12` [Compound 230] was tested. Which pIC50 did it give?
A: > 8.00

Q: With `Cc1cc(=O)n2cc(-c3ccc(Cl)cc3)nc2n1Cc1ccc(-c2ccccc2)cc1` [Compound 88] as the compound, how does the pIC50 read?
A: 6.00 to 7.00

Q: `CCCCCn1c(C)cc(=O)n2cc(-c3ccc(Oc4ccccc4)cc3)nc12` [Compound 141] was tested. Which pIC50 did it give?
A: 7.00 to 8.00

Q: `CCCCCn1c(NCCN2CCN(C)CC2)cc(=O)n2cc(-c3ccc(Cl)cc3)nc12` [Compound 227] was tested. Which pIC50 did it give?
A: > 8.00

Q: With `CCCCCn1c(NCCOC)cc(=O)n2cc(-c3ccc(Cl)cc3)nc12` [Compound 250] as the compound, how does the pIC50 read?
A: 7.00 to 8.00

Q: How did the pIC50 turn out when `CCCCCn1c(C)c(CCC(=O)OCC)c(=O)n2cc(-c3ccc(Cl)cc3)nc12` [Compound 200] was run?
A: > 8.00

Same assay, conditions: Assay Method: Method B (Test Example 2); read-out: Inhibitory Activity (Enzyme Inhibitory Activity, IC50)

Q: With `CC(=O)OCCn1c(C)cc(=O)n2cc(-c3ccc(Cl)cc3)nc12` [Compound 29] as the compound, how does the pIC50 read?
A: 7.00 to 8.00

Q: How did the pIC50 turn out when `Cc1cc(=O)n2cc(-c3ccc(Cl)cc3)nc2n1CC1CC1` [Compound 66] was run?
A: 7.00 to 8.00

Q: `CCC/C=C/n1c(C)cc(=O)n2cc(-c3ccc(Cl)cc3)nc12` [Compound 44] was tested. Which pIC50 did it give?
A: 7.00 to 8.00

Q: How did the pIC50 turn out when `Cc1cc(=O)n2cc(-c3ccc(Cl)cc3)nc2n1CC(=O)NC(C)C` [Compound 68] was run?
A: < 6.00

Q: How did the pIC50 turn out when `Cc1cc(=O)n2cc(-c3ccc(Cl)cc3)nc2n1CCCCCO` [Compound 45] was run?
A: 6.00 to 7.00

Q: With `CCCC(Cn1c(C)cc(=O)n2cc(-c3ccc(Cl)cc3)nc12)OS(C)(=O)=O` (stereo not shown) [Compound 84] as the compound, how does the pIC50 read?
A: > 8.00

Q: `Cc1cc(=O)n2cc(-c3ccc(Cl)cc3)nc2n1CC(=O)C1CC1` [Compound 50] was tested. Which pIC50 did it give?
A: 6.00 to 7.00

Q: `Cc1cc(=O)n2cc(-c3ccc(Cl)cc3)nc2n1C(C)C(=O)OC(C)(C)C` (stereo not shown) [Compound 74] was tested. Which pIC50 did it give?
A: 6.00 to 7.00

Q: `Cc1cc(=O)n2cc(-c3ccc(Cl)cc3)nc2n1CC(=O)C1CCCCC1` [Compound 69] was tested. Which pIC50 did it give?
A: < 6.00

Target: T1, Human autotaxin enzyme
Test: Evaluation of autotaxin inhibitor, Method C (Test Example 3): 18:0 Lyso PC, choline assay, Resorufin fluorescence
Format: biochemical
Details: Assay Method C (Test Example 3), human autotaxin, 18:0 Lyso PC substrate; read-out: Inhibitory Activity (autotaxin enzyme inhibitory activity, IC50 class)
Summary of the method: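 Human autotaxin in Tris-HCl pH 7.5, 150 mM NaCl, 5 mM MgCl2, 0.05% Triton X-100 reacted 2 h at room temperature with 18:0 Lyso PC (200 μM solution added). Released choline detected via choline oxidase/peroxidase/Amplex-type reagent, resorufin fluorescence (ex 531/em 598 nm); inhibition vs no-compound and no-enzyme controls, concentration-response curve.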

Q: How did the pIC50 turn out when `CCCCCn1c(-c2ccc(C(=O)N3C[C@@H]4COC(=O)[C@@H]4C3)cc2)cc(=O)n2cc(-c3ccc(Cl)cc3)nc12` [Compound 503] was run?
A: 7.00 to 8.00

Q: With `CCCCCn1c(N(C)Cc2ccc(C(=O)O)cc2)cc(=O)n2cc(-c3ccc(Cl)cc3)nc12` [Compound 197] as the compound, how does the pIC50 read?
A: 7.00 to 8.00

Q: `CCCCCn1c(N2CCC[C@H]2C(=O)N2CCCC2C(=O)O)cc(=O)n2cc(-c3ccc(Cl)cc3)nc12` (stereo partly shown) [Compound 349] was tested. Which pIC50 did it give?
A: > 8.00

Q: `CCCCCn1c(N2CCC[C@H]2C(=O)NCCCN2CCN(C)CC2)cc(=O)n2cc(-c3ccc(Cl)cc3)nc12` [Compound 649] was tested. Which pIC50 did it give?
A: 7.00 to 8.00

Q: With `CCCCCn1c(-c2ccc(C(=O)N(C)CCO)cc2)cc(=O)n2cc(-c3ccc(Cl)cc3)nc12` [Compound 476] as the compound, how does the pIC50 read?
A: 7.00 to 8.00

Q: `CCCCCn1c(N2CCC[C@H]2C(=O)NC(CO)C(=O)OC)cc(=O)n2cc(-c3ccc(Cl)cc3)nc12` (stereo partly shown) [Compound 686] was tested. Which pIC50 did it give?
A: 7.00 to 8.00

Q: `CCCCCn1c(-c2ccc(S(C)(=O)=O)cc2)cc(=O)n2cc(-c3ccc(Cl)cc3)nc12` [Compound 433] was tested. Which pIC50 did it give?
A: 7.00 to 8.00

Q: `CCCCCn1c(N2CCC[C@H]2C(=O)N[C@@H](CC(C)(C)C)C(=O)O)cc(=O)n2cc(-c3ccc(Cl)cc3)nc12` [Compound 730] was tested. Which pIC50 did it give?
A: > 8.00

Q: `N#CCCCCn1c(NCc2ccc(C(=O)O)cc2)cc(=O)n2cc(-c3ccc(C#N)cc3)nc12` [Compound 288] was tested. Which pIC50 did it give?
A: 7.00 to 8.00

Q: How did the pIC50 turn out when `CCCCCn1c(N2C[C@@H](O)C[C@H]2C(=O)NCC(=O)O)cc(=O)n2cc(-c3ccc(Cl)cc3)nc12` [Compound 776] was run?
A: > 8.00

Q: `CCCCCn1c(N2CCCC(O)(c3ccc(F)cc3)C2)cc(=O)n2cc(-c3ccc(Cl)cc3)nc12` (stereo not shown) [Compound 317] was tested. Which pIC50 did it give?
A: < 6.00

Q: `CCCCCn1c(N2CCC[C@H]2C(=O)NCC(=O)C(C)(C)C)cc(=O)n2cc(-c3ccc(Cl)cc3)nc12` [Compound 706] was tested. Which pIC50 did it give?
A: 7.00 to 8.00

Q: How did the pIC50 turn out when `O=C(O)[C@H](CCc1ccccc1)NC(=O)[C@@H]1CCCN1c1cc(=O)n2cc(-c3ccc(Cl)cc3)nc2n1Cc1ccccc1` [Compound 745] was run?
A: > 8.00

Q: `CCCCCn1c(N2CCN(C(=O)c3ccc(O)cc3)CC2)cc(=O)n2cc(-c3ccc(Cl)cc3)nc12` [Compound 713] was tested. Which pIC50 did it give?
A: 7.00 to 8.00

Q: With `CCCCCn1c(NC(C)=O)cc(=O)n2cc(-c3ccc(Cl)cc3)nc12` [Compound 333] as the compound, how does the pIC50 read?
A: 6.00 to 7.00

Q: `CCCCCn1c(N2CCC[C@H]2C(=O)NCCC(=O)N2CCOCC2)cc(=O)n2cc(-c3ccc(Cl)cc3)nc12` [Compound 343] was tested. Which pIC50 did it give?
A: 7.00 to 8.00

Q: How did the pIC50 turn out when `CCCCCn1c(-c2ccc(CCCC)cc2)cc(=O)n2cc(-c3ccc(Cl)cc3)nc12` [Compound 442] was run?
A: < 6.00

Q: `CCn1c(N2C[C@H](O)C[C@H]2C(=O)N[C@@H](CCc2ccccc2)C(=O)O)cc(=O)n2cc(-c3ccc(Cl)cc3)nc12` [Compound 763] was tested. Which pIC50 did it give?
A: 7.00 to 8.00

Q: With `CCCCCn1c(N2CCC[C@H]2C(=O)NCCN2CCCC2)cc(=O)n2cc(-c3ccc(Cl)cc3)nc12` [Compound 647] as the compound, how does the pIC50 read?
A: < 6.00

Q: How did the pIC50 turn out when `CCCCCn1c(-c2ccc(C(=O)NCCn3ccnc3)cc2)cc(=O)n2cc(-c3ccc(Cl)cc3)nc12` [Compound 514] was run?
A: > 8.00

Same assay, conditions: Assay Method C, human autotaxin, 18:0 Lyso PC substrate; read-out: Inhibitory Activity

Q: `Cn1cc(Cc2cccc(C(=O)O)c2)c(=O)n2cc(-c3ccc(Cl)cc3)nc12` [Compound 819] was tested. Which pIC50 did it give?
A: 6.00 to 7.00

Q: `CCCCCn1c(N2CCC[C@H]2C(=O)Nc2ccc(Oc3nn[nH]n3)cc2)cc(=O)n2cc(-c3ccc(Cl)cc3)nc12` [Compound 796] was tested. Which pIC50 did it give?
A: 6.00 to 7.00

Q: `CCC(CO)(CO)NC(=O)Cc1cn(CCCC(F)(F)F)c2nc(-c3ccc(Cl)cc3)cn2c1=O` [Compound 861] was tested. Which pIC50 did it give?
A: 7.00 to 8.00

Q: With `CCCCCn1c(N2CCC[C@H]2C(=O)Nc2ccc(O)c(OC)c2)cc(=O)n2cc(-c3ccc(Cl)cc3)nc12` [Compound 793] as the compound, how does the pIC50 read?
A: 6.00 to 7.00

Same assay, conditions: Assay Method: Method C (Test Example 3); read-out: Inhibitory Activity (Enzyme Inhibitory Activity, IC50)

Q: `CCC(=O)CCn1c(C)cc(=O)n2cc(-c3ccc(Cl)cc3)nc12` [Compound 48] was tested. Which pIC50 did it give?
A: < 6.00
